The text below walks through data of patent publication US20250340537A1, “PHARMACEUTICALLY ACTIVE COMPOUNDS, COMPOSITIONS, AND METHODS FOR MODULATING PENDRIN” (ARBORMED Co., Ltd., priority 2022, published 2025).

The test system of experiment [1] is pendrin in patient nasal epithelial cells. Description: Patient-derived cell-based (PDC) assay, immunofluorescence staining of pendrin. More on the design: species or system human. The following applies: 10 μM; for Pendrin expression on epithelial cell membrane, immunofluorescence staining: FIG. 2A; for Mean fluorescence intensity (pendrin expression intensity) vs vehicle and IL-4 groups: FIG. 2B, *p<0.05. The protocol: The experimental approach is grounded in a multi-step process aimed at investigating the effects of drug treatments on nasal epithelial cells. Initially, nasal tissues are collected and processed to isolate epithelial cells through tissue lysis. These cells are then cultured and subjected to Air-Liquid Interface (ALI) conditions for an extended period. Following this, drug treatments involving human IL-4 and Pendrin corrector drugs are administered, and protein harvesting is conducted for subsequent analysis. The expression of the pendrin antibody ‘hR1 (YONSEI ENT Choi lab.)’ is confirmed through Western blot analysis after drug treatments. Additionally, immunofluorescence staining is performed on Transwell membranes from different drug concentrations, and the resulting cryosections are subjected to confocal microscopy using the primary antibody ‘hR2 (YONSEI ENT Choi lab.)’. This comprehensive methodology allows for the visualization and analysis of pendrin expression in both basal and apical regions of nasal epithelial cells, providing insights into the impact of drug treatment on the targeted cellular components.
Nasal tissue were collected from patients and placed in DMEM:F12 (Lonza Cat No. 12-719F) supplemented with 1% penicillin-streptomycin in Transfer media. After removing red blood cells with PBS, tissues were subjected to tissue lysis with 1% protease in transfer media at 37° C. for 1 hour, resulting in the isolation of epithelial cells.
The obtained epithelial cells were conventionally cultured up to passage 1 in BEGM Bulletkit (Lonza Cat No. CC3170) supplemented with BSA 150 mg/ml and EGF (BD Cat No. 354001). Once reaching approximately 90% confluency, cells were detached using 0.25% Trypsin EDTA and seeded onto 12-well Transwell plates (Costar Cat No. 3450) in a 1:1 mixture of DMEM media (Lonza Cat No. 12-707F) and BEGM Bulletkit supplemented media for Air-Liquid Interface (ALI) culture.
ALI culture was initiated by adding 1 ml of media to the bottom and seeding 0.5 ml of cells on the membrane. When cells on the membrane reached 90% confluency, the bottom was filled with culture media supplemented with 50 nM Retinoic acid (RA, SIGMA Cat No. R2625), and ALI culture was performed for 7-14 days.
Subsequent to ALI culture, cells were treated with human IL-4 at […] for 24 hours, followed by treatment with ‘Compound 9, Compound 18 and Compound 105’ Pendrin corrector drugs at concentrations of 0.1, 0.3, 1, 3, 10 μM for 24 hours. After drug treatment, cells attached to the Transwell membrane were harvested by scraping into protein buffer (iNtRON Cat No. 17081). Protein quantification ([…]) was performed for each sample and the expression of the pendrin antibody ‘hR1 (YONSEI ENT custom antibody)’ was confirmed through Western blot analysis.
For immunofluorescence staining, Transwell membranes from each drug-treated concentration were fixed in 4% paraformaldehyde (PFA) at room temperature for 10 minutes. Subsequently, they were cut into three pieces using a microtome, embedded in OCT compound and processed in to 5 μm cryosections. Immunostaining using the primary antibody ‘hR2 (YONSEI ENT custom antibody)’ was conducted, and the pendrin expression in the basal and apical regions of epithelial cells was visualized using confocal microscopy (Carl Zeiss, LSM700).

For a further experiment, the target named is T1, H723R-hPDS (Homo sapiens, UniProt O43511, H723R).
T1 construct: expressed in transfected cells; host or cells: Panc1 (Panc1^hPDS-H723R)
T1 sequence (O43511 1-780 H723R): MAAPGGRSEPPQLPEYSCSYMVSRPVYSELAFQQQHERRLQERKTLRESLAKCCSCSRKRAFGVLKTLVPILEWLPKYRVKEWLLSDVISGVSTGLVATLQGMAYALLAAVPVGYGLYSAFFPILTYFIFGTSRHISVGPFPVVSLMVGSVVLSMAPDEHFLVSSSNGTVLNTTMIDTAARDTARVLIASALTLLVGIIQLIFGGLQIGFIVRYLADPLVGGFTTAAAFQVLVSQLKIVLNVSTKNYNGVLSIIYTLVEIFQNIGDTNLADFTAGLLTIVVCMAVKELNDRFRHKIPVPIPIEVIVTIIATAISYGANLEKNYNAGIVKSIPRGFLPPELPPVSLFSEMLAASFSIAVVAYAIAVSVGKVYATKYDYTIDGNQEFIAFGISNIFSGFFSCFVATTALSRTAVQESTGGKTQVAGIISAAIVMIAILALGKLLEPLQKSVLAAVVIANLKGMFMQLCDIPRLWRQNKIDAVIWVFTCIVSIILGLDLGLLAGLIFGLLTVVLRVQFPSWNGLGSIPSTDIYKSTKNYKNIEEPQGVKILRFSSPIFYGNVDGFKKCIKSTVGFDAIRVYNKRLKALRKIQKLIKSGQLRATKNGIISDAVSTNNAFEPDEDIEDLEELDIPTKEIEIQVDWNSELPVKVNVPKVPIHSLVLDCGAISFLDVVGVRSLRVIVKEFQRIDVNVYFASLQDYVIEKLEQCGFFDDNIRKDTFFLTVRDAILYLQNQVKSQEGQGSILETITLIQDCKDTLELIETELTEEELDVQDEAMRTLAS
Nature of the experiment: Surface biotinylation assay. The format is cell-based. The following applies: Panc1 hPDS-H723R cells, 24 h treatment. From the text:
Surface biotinylation is a commonly used technique to specifically isolate plasma membrane proteins using a modified biotin in a form that is easy to bind with proteins. Sulfo-NHS-SS-biotin is a generally used reagent in surface biotinylation due to its impermeability and water solubility. In cool conditions, the extracellular domain of membrane proteins is covalently binding with the reactive biotin ester. These proteins are separated from the whole lysate via a biotin-streptavidin response. In this process, we can validate the increasing rate of the expression level of mutant pendrin in the plasma membrane.
Panc1^parental, Panc1^hPDS-WT and Panc1^hPDS-H723R cells were cultured in high glucose DMEM medium supplemented with 10% fetal bovine serum and 1% antibiotics. 24 hours after seeding in 6-well plates, cells were treated as indicated for 24 h. Cells were washed in PBS and incubated on ice with 0.3 mg/ml biotin in PBS. After 35 min, 1% BSA in PBS, D.W mixture (1:1) was added to cells, and cells were incubated for 10 min. Cells were washed and lysed in lysis buffer. The lysates were sonicated for 20 seconds, and not boiled. After centrifugated, the supernatants were collected and quantified via BCA analysis. The quantified supernatants were added to 10% avidin beads in PBS and incubated overnight at 4° C. After incubation, the below steps were repeated 4 times: i) centrifugation, ii) removing the supernatant, iii) washing with lysis buffer. After the last centrifugation and removing the supernatant, the sample buffer mixed with reducing buffer was added to biotin-avidin mixtures. The elution was accomplished in the 38° C. bioshaker for 40 min and the supernatant was collected. The supernatant was separated by SDS-PAGE and transferred to an Immobilon membrane. After incubation in 5% BSA solution to prevent nonspecific binding, the membrane was incubated with specific antibodies overnight. Then, the membrane was washed with TBST buffer and incubated with HRP-conjugated anti-rabbit or -mouse antibody for 1 hour. The ECL buffer and iBright were used for the visualization of protein bands. The respective protein band intensity was quantified by densitometric analysis using the NIH ImageJ program.
It is indicated as expression % with the following key: A=Expression % greater than 100%; B=Expression % greater than 50%, but less than 100%; C=Expression % less than 50%.

Regarding `COc1cc(-c2nccc(C3=C(N)N(CC4CCCC4)CC3=O)n2)ccc1O` [Compound 105], in experiment [1], the “Pendrin expression on epithelial cell membrane, immunofluorescence staining” value (from here on “Pendrin expression … immunofluorescence staining”) was “clear red fluorescence”; the “Mean fluorescence intensity (pendrin expression intensity) vs vehicle and IL-4 groups” value is given as “significant difference”. Besides, the “Surface expression % of H723R-hPDS relative to WT-hPDS (Glycosylated form pendrin)” value on H723R-hPDS (3 uM) is on record as “A (A=Expression % greater than 100%)”. Moreover, the “Surface expression % of H723R-hPDS relative to WT-hPDS (Glycosylated form pendrin)” value on H723R-hPDS (10 uM) was “A (A=Expression % greater than 100%)”.
On to `NC1=C(c2cncc(-c3ccc(O)c(O)c3)n2)C(=O)CN1c1ccccc1Cl` [Compound 9], for which the “Pendrin expression … immunofluorescence staining” value in experiment [1] is “clear red fluorescence”. Besides, in experiment [1], the “Mean fluorescence intensity (pendrin expression intensity) vs vehicle and IL-4 groups” value is recorded as “significant difference”. For the same compound, the “Surface expression % of H723R-hPDS relative to WT-hPDS (Glycosylated form pendrin)” value at H723R-hPDS (3 uM) and at H723R-hPDS (10 uM) was “A (A=Expression % greater than 100%)” throughout.
Take `NC1=C(c2cncc(-c3ccc(O)c(O)c3)n2)C(=O)CN1CC1CCCC1` [Compound 18]: in experiment [1], the “Pendrin expression … immunofluorescence staining” value was “clear red fluorescence”; the “Mean fluorescence intensity (pendrin expression intensity) vs vehicle and IL-4 groups” value is “significant difference”. For the same compound, the “Surface expression % of H723R-hPDS relative to WT-hPDS (Glycosylated form pendrin)” value on H723R-hPDS (3 uM) is recorded as “A (A=Expression % greater than 100%)”. Further, the “Surface expression % of H723R-hPDS relative to WT-hPDS (Glycosylated form pendrin)” value on H723R-hPDS (10 uM) was “A (A=Expression % greater than 100%)”.
